# Test results reported in patent US6858235B2, “Antioxidant composition and method of preparation thereof” (Eromlife Co. Ltd., priority 2002, dated 2005).
# Assay: Antioxidant activity using the free radical source DPPH (absorbance at 517 nm)
# Type: biochemical
# Conditions: for Antioxidant activity RC50: DPPH 0.4 mM, room temperature, 30 minutes, absorbance 517 nm, concentration giving 50% of control absorbance
# Description: The antioxidant activity of the Rosa multiflora extract of the present invention obtained according to the above method was measured according to the method for measuring antioxidant activity (The Korean Society of Food and Nutrition, Handbook for Experiments in Food and Nutrition, 651p, 2000; Blois, M. S., Nature, 4617:1198, 1958).
# In addition, active fractions showing antioxidant activity can be obtained by fractionating and purifying the obtained Rosa multiflora extracts by chromatography. It is preferable to carry out silica gel column chromatography once or twice. Where active fractions obtained by silica gel column chromatography are further subjected to ODS column chromatography, more highly purified active fractions can be obtained. A mixture of chloroform and methanol or a mixture of methanol and distilled water can be used as a developing solvent at the time of chromatography. A flow rate of the developing solvent is generally from 5 Ml/hr to 1000 Ml/hr and preferably from 20 Ml/hr to 500 Ml/hr. The fractions eluted by chromatography are collected in flasks in the amount of 5 Ml to 100 Ml respectively. Active fractions showing antioxidant activity can be obtained by measuring antioxidant activities of the collected fractions. Antioxidant activity can be measured by a known method (The Korean Society of Food and Nutrition, Handbook for Experiments in Food and Nutrition, 651p, 2000; Blois, M. S., Nature, 4617:1198, 1958).
# Antioxidant activity was measured according to the method for measuring antioxidant activity using a free radical source, 1,1-diphenyl-2-picrylhydrazyl (DPPH) (The Korean Society of Food and Nutrition, Handbook for Experiments in Food and Nutrition, 651p, 2000; Blois, M. S., Nature, 4617: 1198, 1958). […] 0.8 Ml of DPPH (0.4 mM) solution and 3 Ml of ethanol were added, the reaction was carried out at the room temperature for 30 minutes and absorbance was measured at 517 nm. Antioxidant activity was expressed as a RC50 value. The RC50 represents the concentration of antioxidant (μg/Ml) required to achieve an absorbance equal to 50% of the absorbance of a control in which no antioxidants are contained.
SMILES,Antioxidant activity RC50,"Antioxidant activity relative to α-tocopherol (times stronger) (compared with the natural antioxidant α-tocopherol, DPPH RC50)","Antioxidant activity relative to BHA (times stronger) (compared with the synthetic antioxidant BHA, DPPH RC50)"
"COc1ccc(O)c(C(C)(C)C)c1 [BHA, butylated hydroxy anisole, reference compound]",9.2 µg/mL,,
"Oc1cc(O)c2c(c1)O[C@H](c1ccc(O)c(O)c1)[C@@H](O)[C@@H]2c1c(O)cc(O)c2c1O[C@H](c1ccc(O)c(O)c1)[C@@H](O)C2 [Procyanidin B3, catechin-(4α→8)-catechin]",3.4 µg/mL,3.8 times,2.7 times
"Cc1c(C)c2c(c(C)c1O)CC[C@@](C)(CCC[C@H](C)CCC[C@H](C)CCCC(C)C)O2 [α-tocopherol, reference compound]",13.0 µg/mL,,
